Assay results from patent US20260256792A1, “TREATMENT OF CHRONIC SPONTANEOUS URTICARIA BY ADMINISTERING (R)-2-[3-[4-AMINO-3-(2-FLUORO-4-PHENOXY-PHENYL)PYRAZOLO[3,4-D]PYRIMIDIN-1-YL]PIPERIDINE-1-CARBONYL]-4-METHYL-4-[4-(OXETAN-3-YL)PIPERAZIN-1-YL]PENT-2-ENENITRILE” (priority 2023, published 2026).

Test system: moderate-to-severe chronic spontaneous urticaria (CSU)
Experiment: Phase 2 CSU study: urticaria activity score over 7 days (UAS7)
Type: in vivo, human
Set-up: key to UAS7 Median / UAS7 Change from baseline Median / UAS7 change from baseline, Q1 / UAS7 change from baseline, Q3 / UAS7 change from baseline, Max / UAS7 Change from baseline LS Mean (SE): UAS7 points; daily UAS score ranges 0–6 points/day, over 7 days
Details: for UAS7 Post-baseline Mean (SD) / UAS7 % Change difference for rilzabrutinib vs. placebo LS Mean (95% CI) / UAS7 % Change from baseline LS Mean (SE) / UAS7 Change difference for rilzabrutinib vs. placebo LS Mean (95% CI) / UAS7 Change from baseline LS Mean (SE): Omalizumab-Naïve Population; for Change from Baseline in UAS7 at Week 12: LS Mean (SE) / Change from Baseline in UAS7 at Week 12: LS Mean Diff vs. placebo (95% CI) / Change from Baseline in UAS7 at Week 12: Mean (SD): Omalizumab-Naïve
From the text: The study comprises a 12 week, randomized, double-blind, placebo-controlled, multi-center, dose-ranging efficacy and safety phase, followed by a 40 week open label extension (OLE) phase (see FIG. 1). The study consists of three phases and an optional OLE phase. […] Clinically, CSU is characterized by the spontaneous and recurrent appearance of pruritic hives. The proposed primary endpoints were the UAS7 at Week 12 in EU and EU reference countries and the ISS7 in the US. Regardless of where a participant was from, all assessments were the same. The UAS7 score is a composite score containing both the HSS7 and the ISS7. This allowed a global assessment of the two key components of urticaria: hives and itch. […] The UAS is a validated PRO measure. […] The daily UAS scores range from 0 to 6 point/day. […] Patients were to complete the UAS using the e-diary. […] The following secondary endpoints were to be analyzed using the same approach as for the primary endpoint: • Change from baseline in UAS7 at Week 4 • Change from baseline in UAS7 at Week 12 (for US and US reference countries) • Change from baseline in ISS7 at Week 12 (except US and US reference countries) • Change from baseline in HSS7 at Week 12 The following responder secondary endpoints were to be analyzed using the Cochran-Mantel-Haenszel test adjusted by region: • Proportion of participants with UAS7<6 at Week 12 • Proportion of participants with UAS7=0 at Week 12 Participants who received selected prohibited medications and/or rescue medications were to be considered as non-responders for time points after the medication usage. For other participants, all available data including those collected during the off-treatment period were to be used to determine the responder/non-responder status. Missing data were to be considered as non-responders.

[1] = Age group (years) <44 (Median), 400 mg BID
[2] = Age group (years) <44 (Median), 400 mg QPM
[3] = Age group (years) <44 (Median), 400 mg TID
[4] = Age group (years) <65, 400 mg BID
[5] = Age group (years) <65, 400 mg QPM
[6] = Age group (years) <65, 400 mg TID
[7] = Age group (years) ≥44 (Median), 400 mg BID

## CC(C)(C=C(C#N)C(=O)N1CCC[C@@H](n2nc(-c3ccc(Oc4ccccc4)cc3F)c3c(N)ncnc32)C1)N1CCN(C2COC2)CC1 [rilzabrutinib, (R)-2-[3-[4-amino-3-(2-fluoro-4-phenoxy-phenyl)pyrazolo[3,4-d]pyrimidin-1-yl]piperidine-1-carbonyl]-4-methyl-4-[4-(oxetan-3-yl)piperazin-1-yl]pent-2-enenitrile]
400 mg QPM, Week 3
  UAS7 Post-baseline Mean (SD): 22.01 (9.00)
400 mg QPM, Week 4
  UAS7 % Change difference for rilzabrutinib vs. placebo LS Mean (95% CI): −8.22%
  UAS7 % Change from baseline LS Mean (SE): −28.63 (5.66) %
  UAS7 Change difference for rilzabrutinib vs. placebo LS Mean (95% CI): −2.08
  UAS7 Change from baseline LS Mean (SE): −9.14 (1.66)
  UAS7 Post-baseline Mean (SD): 21.92 (8.82)
400 mg QPM, Week 5
  UAS7 Post-baseline Mean (SD): 20.63 (9.18)
400 mg QPM, Week 6
  UAS7 Post-baseline Mean (SD): 20.21 (10.42)
400 mg QPM, Week 7
  UAS7 Post-baseline Mean (SD): 21.11 (10.03)
400 mg QPM, Week 9
  UAS7 Post-baseline Mean (SD): 20.25 (10.25)
400 mg QPM, Week 10
  UAS7 Post-baseline Mean (SD): 20.27 (10.69)
400 mg QPM, Week 11
  UAS7 Post-baseline Mean (SD): 21.17 (11.16)
400 mg QPM, Week 12
  UAS7 % Change difference for rilzabrutinib vs. placebo LS Mean (95% CI): −4.51%
  UAS7 % Change from baseline LS Mean (SE): −34.79 (6.80) %
  UAS7 Change difference for rilzabrutinib vs. placebo LS Mean (95% CI): 0.40
  UAS7 Change from baseline LS Mean (SE): −9.74 (2.00)
400 mg TID, Week 1
  UAS7 % Change difference for rilzabrutinib vs. placebo LS Mean (95% CI): −27.13%
  UAS7 % Change from baseline LS Mean (SE): −36.60 (5.66) %
  UAS7 Change difference for rilzabrutinib vs. placebo LS Mean (95% CI): −7.89
  UAS7 Change from baseline LS Mean (SE): −11.44 (1.56)
  UAS7 Post-baseline Mean (SD): 17.77 (10.26)
400 mg TID, Week 2
  UAS7 % Change difference for rilzabrutinib vs. placebo LS Mean (95% CI): −27.13%
  UAS7 % Change from baseline LS Mean (SE): −44.90 (5.51) %
  UAS7 Change difference for rilzabrutinib vs. placebo LS Mean (95% CI): −7.73
  UAS7 Change from baseline LS Mean (SE): −13.63 (1.56)
  UAS7 Post-baseline Mean (SD): 15.65 (10.66)
400 mg TID, Week 3
  UAS7 % Change difference for rilzabrutinib vs. placebo LS Mean (95% CI): −27.19%
  UAS7 % Change from baseline LS Mean (SE): −47.14 (5.69) %
  UAS7 Change difference for rilzabrutinib vs. placebo LS Mean (95% CI): −6.90
  UAS7 Change from baseline LS Mean (SE): −13.83 (1.65)
  UAS7 Post-baseline Mean (SD): 15.37 (9.87)
400 mg TID, Week 4
  UAS7 % Change difference for rilzabrutinib vs. placebo LS Mean (95% CI): −26.33%
  UAS7 % Change from baseline LS Mean (SE): −46.75 (5.92) %
  UAS7 Change difference for rilzabrutinib vs. placebo LS Mean (95% CI): −6.60
  UAS7 Change from baseline LS Mean (SE): −13.66 (1.72)
  UAS7 Post-baseline Mean (SD): 14.65 (9.61)
400 mg TID, Week 5
  UAS7 Change difference for rilzabrutinib vs. placebo LS Mean (95% CI): −5.10
  UAS7 Change from baseline LS Mean (SE): −15.54 (1.72)
  UAS7 Post-baseline Mean (SD): 13.41 (10.60)
400 mg TID, Week 6
  UAS7 Post-baseline Mean (SD): 14.10 (11.23)
400 mg TID, Week 7
  UAS7 Post-baseline Mean (SD): 13.54 (9.34)
400 mg TID, Week 8
  UAS7 Post-baseline Mean (SD): 13.36 (9.81)
400 mg TID, Week 9
  UAS7 Post-baseline Mean (SD): 12.57 (9.72)
400 mg TID, Week 10
  UAS7 Post-baseline Mean (SD): 12.61 (9.89)
400 mg TID, Week 12
  UAS7 Post-baseline Mean (SD): 11.00 (9.90)
[1]
  Change from Baseline in UAS7 at Week 12: LS Mean (SE): −13.80 (2.95)
  Change from Baseline in UAS7 at Week 12: LS Mean Diff vs. placebo (95% CI): −5.42 (−13.05, 2.21)
  Change from Baseline in UAS7 at Week 12: Mean (SD): −11.98 (9.69)
[2]
  Change from Baseline in UAS7 at Week 12: LS Mean (SE): −9.54 (2.74)
  Change from Baseline in UAS7 at Week 12: Mean (SD): −10.45 (10.67)
[3]
  Change from Baseline in UAS7 at Week 12: LS Mean (SE): −16.19 (3.68)
  Change from Baseline in UAS7 at Week 12: LS Mean Diff vs. placebo (95% CI): −7.80 (−16.46, 0.86)
  Change from Baseline in UAS7 at Week 12: Mean (SD): −18.69 (10.55)
[4]
  Change from Baseline in UAS7 at Week 12: LS Mean (SE): −13.99 (2.04)
  Change from Baseline in UAS7 at Week 12: LS Mean Diff vs. placebo (95% CI): −3.58 (−9.19, 2.03)
  Change from Baseline in UAS7 at Week 12: Mean (SD): −13.91 (11.95)
[5]
  Change from Baseline in UAS7 at Week 12: LS Mean (SE): −9.12 (1.96)
  Change from Baseline in UAS7 at Week 12: LS Mean Diff vs. placebo (95% CI): 1.30 (−4.27, 6.86)
  Change from Baseline in UAS7 at Week 12: Mean (SD): −10.37 (9.46)
[6]
  Change from Baseline in UAS7 at Week 12: LS Mean (SE): −16.30 (2.11)
  Change from Baseline in UAS7 at Week 12: LS Mean Diff vs. placebo (95% CI): −5.88 (−11.58, −0.19)
  Change from Baseline in UAS7 at Week 12: Mean (SD): −18.19 (11.00)
[7]
  Change from Baseline in UAS7 at Week 12: LS Mean (SE): −15.12 (2.72)
  Change from Baseline in UAS7 at Week 12: LS Mean Diff vs. placebo (95% CI): −3.56 (−11.91, 4.80)
  Change from Baseline in UAS7 at Week 12: Mean (SD): −16.63 (13.80)
Age group (years) ≥44 (Median), 400 mg QPM
  Change from Baseline in UAS7 at Week 12: LS Mean (SE): −8.84 (2.81)
